Laboratory results published in PMC10663516 (Scientific Reports, 2023).

Key:
BTK = BTK (Homo sapiens, UniProt Q06187); assay: Off-Chip mobility shift kinase assay (potency); type: biochemical; set-up: Purified full-length recombinant BTK (Carna Biosciences #08–080); purchased Carna Biosciences 08–080; details: 75 µM ATP, 90 min, n = 9
Experimental: Purified full-length recombinant BTK (Carna Biosciences #08–080) was diluted in buffer (see Supplementary Material) to a final concentration of 0.05 ng/µL with 75 µM ATP and 1 µM of the peptide FITC-AHA-[…]-NH2 (Tufts Core Facility, Boston, MA, USA) into microtiter plates. TL-895 (0.038–10,000 nM) was added and the samples were incubated at room temperature for 90 min (min) before the addition of stop buffer containing 10 mM ethylenediamine tetra-acetic acid (EDTA; see Supplementary Material). Samples were read on a Caliper LC3000 (Caliper Life Sciences, Waltham, MA, USA) using an Off-Chip mobility shift assay format to measure percentage conversion of substrate to product, from which half maximal inhibitory concentration (IC50)–response curves were generated.
potent second-generation BTK inhibitor, for the treatment of B-cell
Samantha M. Goodstal, Jing Lin, Timothy Crandall, Lindsey Crowley, Andrew T. Bender,
Albertina Pereira, Maria Soloviev, John S. Wesolowski, Riham Iadevaia,
Sven-Eric Schelhorn, Edith Ross, Federica Morandi, Jianguo Ma, Anderson Clark
Kinase assay buffer components
4 mM dithiothreitol (Sigma, D0632)
100 mM 4-(2-hydroxyethyl)-1-piperazineethanesulfonic acid (HEPES) pH 7.5
0.227% Coating Reagent #3 (Caliper Life Sciences)
TL-89 5 lo g c onc ent rati on (M )
Supplementary Figure S1. Inhibition of recombinant human full-length BTK activity by TL-
895 and resulting IC50. […]

B-cell malignancies = details: cited from earlier work
GRANTA-519 = assay: Cell viability, ATPlite; type: cell-based; details: Homo sapiens; GRANTA-519 (MCL), 72 h; read-out: Max response (GI %)
Experimental: (§1) The potency of TL-895 effects on cell viability was further examined in vitro in a panel of diffuse large B-cell lymphoma (DLBCL) and MCL cell lines, comprising ten germinal B-cell like subtype (GCB)-DLBCL cell lines, six activated B-cell like (ABC)-DLBCL cell lines, and six MCL cell lines (Horizon Discovery Inc, Cambridge MA, USA). Cells were seeded into 384-well plates (500 cells/well) and incubated (37 °C for 24 h) before treatment with varying concentrations of TL-895 for 72 h. ATP levels were analyzed using the ATPlite Luminescence Assay System (Perkin Elmer, UK). Growth inhibition and maximum response were calculated using the Chalice Analyzer (Horizon Discovery Inc).

DOHH-2 = assay: Cell viability, ATPlite; type: cell-based; details: Homo sapiens, DOHH-2 (GCB-DLBCL), 72 h
Experimental: as §1

DB = assay: Cell viability, ATPlite; type: cell-based; details: Homo sapiens; DB (GCB-DLBCL), 72 h; read-out: Max response (GI %)
Experimental: as §1

OCI-Ly18 = assay: Cell viability, ATPlite; type: cell-based; details: Homo sapiens, OCI-Ly18 (GCB-DLBCL), 72 h
Experimental: as §1

SU-DHL-4-epst = assay: Cell viability, ATPlite; type: cell-based; details: Homo sapiens, SU-DHL-4-epst (GCB-DLBCL), 72 h
Experimental: as §1

Mino = assay: Cell viability, ATPlite; type: cell-based; details: Homo sapiens, Mino (MCL), 72 h
Experimental: as §1

JVM-2 = assay: Cell viability, ATPlite; type: cell-based; details: Homo sapiens, JVM-2 (MCL), 72 h
Experimental: as §1

SU-DHL-8-epst = assay: Cell viability, ATPlite; type: cell-based; details: Homo sapiens, SU-DHL-8-epst (ABC-DLBCL), 72 h
Experimental: as §1

U-2932 = assay: Cell viability, ATPlite; type: cell-based; details: Homo sapiens, U2932, U-2932 (ABC-DLBCL), 72 h
Experimental: as §1

SU-DHL-5-epst = assay: Cell viability, ATPlite; type: cell-based; details: Homo sapiens; SU-DHL-5-epst (GCB-DLBCL), 72 h; read-out: Max response (GI %)
Experimental: as §1

OCI-Ly19 = assay: Cell viability, ATPlite; type: cell-based; details: Homo sapiens; OCI-Ly19 (GCB-DLBCL), 72 h; read-out: Max response (GI %)
Experimental: as §1

HU-DHL-1-epst = assay: Cell viability, ATPlite; type: cell-based; details: Homo sapiens, HU-DHL-1-epst (GCB-DLBCL), 72 h
Experimental: as §1

Toledo = assay: Cell viability, ATPlite; type: cell-based; details: Homo sapiens, Toledo (GCB-DLBCL), 72 h
Experimental: as §1

Jeko-1 = assay: Cell viability, ATPlite; type: cell-based; details: Homo sapiens; Jeko-1 (MCL), 72 h; read-out: Max response (GI %)
Experimental: as §1

REC-1 = assay: Cell viability, ATPlite; type: cell-based; details: Homo sapiens, Rec1, REC-1 (MCL), 72 h
Experimental: as §1

Maver-1 = assay: Cell viability, ATPlite; type: cell-based; details: Homo sapiens, Maver1, Maver-1 (MCL), 72 h
Experimental: as §1

HT = assay: Cell viability, ATPlite; type: cell-based; details: Homo sapiens; HT (GCB-DLBCL), 72 h; read-out: Max response (GI %)
Experimental: as §1

Pfeiffer = assay: Cell viability, ATPlite; type: cell-based; details: Homo sapiens, Pfeiffer (GCB-DLBCL), 72 h
Experimental: as §1

Chain of BTK (Q06187 whole entry): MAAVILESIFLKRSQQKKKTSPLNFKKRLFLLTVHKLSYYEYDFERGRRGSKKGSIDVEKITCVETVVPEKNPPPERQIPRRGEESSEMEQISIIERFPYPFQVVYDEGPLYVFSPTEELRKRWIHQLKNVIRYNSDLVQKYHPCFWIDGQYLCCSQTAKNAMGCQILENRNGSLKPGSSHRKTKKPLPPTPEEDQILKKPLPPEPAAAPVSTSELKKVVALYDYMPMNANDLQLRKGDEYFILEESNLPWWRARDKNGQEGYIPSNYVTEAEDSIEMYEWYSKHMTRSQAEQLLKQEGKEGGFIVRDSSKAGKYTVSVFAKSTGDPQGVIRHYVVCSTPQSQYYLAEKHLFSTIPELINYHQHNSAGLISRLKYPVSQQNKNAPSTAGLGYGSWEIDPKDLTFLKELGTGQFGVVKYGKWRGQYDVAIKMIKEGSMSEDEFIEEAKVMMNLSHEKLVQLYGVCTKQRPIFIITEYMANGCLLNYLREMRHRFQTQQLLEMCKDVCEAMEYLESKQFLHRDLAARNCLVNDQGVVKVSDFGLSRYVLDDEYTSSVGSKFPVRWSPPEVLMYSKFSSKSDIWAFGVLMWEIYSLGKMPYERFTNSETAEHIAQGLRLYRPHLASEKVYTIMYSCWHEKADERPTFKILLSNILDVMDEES

Structure (SMILES): C=CC(=O)N1CCC(F)(CNc2ncnc(N)c2-c2ccc(Oc3ccccc3)cc2)CC1 [TL-895]
- IC50 (BTK): 0.0015 µM
- Dose-limiting toxicities (B-cell malignancies; doses up to 900 mg/day): no dose-limiting toxicities were reported
- Maximum tolerated dose (B-cell malignancies; doses up to 900 mg/day): not reached
- Patients with best response of PR or higher (B-cell malignancies; monotherapy): Half of patients
- Patients with treatment-related grade 3–4 adverse events (B-cell malignancies; three patients): 17%
- Emax (GRANTA-519): 50%
- GI50 (DOHH-2): 9.39 µM
- IC50 (DOHH-2): 11.4 µM
- Emax (DOHH-2; read-out: Max response (GI %)): 130%
- Emax (DB): 25%
- GI50 (OCI-Ly18): 18.6 µM
- IC50 (OCI-Ly18): 22.3 µM
- Emax (OCI-Ly18; read-out: Max response (GI %)): 68%
- GI50 (SU-DHL-4-epst): 10.6 µM
- IC50 (SU-DHL-4-epst): 11.9 µM
- Emax (SU-DHL-4-epst; read-out: Max response (GI %)): 94%
- GI50 (Mino): 5.58 µM
- IC50 (Mino): 14 µM
- Emax (Mino; read-out: Max response (GI %)): 88%
- GI50 (JVM-2): 6.81 µM
- IC50 (JVM-2): 17.9 µM
- Emax (JVM-2; read-out: Max response (GI %)): 135%
- GI50 (SU-DHL-8-epst): 23 µM
- IC50 (SU-DHL-8-epst): 25.7 µM
- Emax (SU-DHL-8-epst; read-out: Max response (GI %)): 62%
- GI50 (U-2932): 1.97 µM
- IC50 (U-2932): 6.6 µM
- Emax (U-2932; read-out: Max response (GI %)): 105%
- Emax (SU-DHL-5-epst): 42%
- Emax (OCI-Ly19): 36%
- GI50 (HU-DHL-1-epst): 20.8 µM
- IC50 (HU-DHL-1-epst): 24.9 µM
- Emax (HU-DHL-1-epst; read-out: Max response (GI %)): 73%
- GI50 (Toledo): 3.84 µM
- IC50 (Toledo): 5.18 µM
- Emax (Toledo; read-out: Max response (GI %)): 195%
- Emax (Jeko-1): 42%
- GI50 (REC-1): 4.26 µM
- IC50 (REC-1): 13 µM
- Emax (REC-1; read-out: Max response (GI %)): 83%
- GI50 (Maver-1): 27.5 µM
- Emax (Maver-1; read-out: Max response (GI %)): 53%
- Emax (HT): 17%
- GI50 (Pfeiffer): 19.6 µM
- IC50 (Pfeiffer): 21 µM
- Emax (Pfeiffer; read-out: Max response (GI %)): 99%
